Data on 21 molecules can be found in ChEMBL document CHEMBL1143441, “New classes of Gram-positive selective antibacterials: inhibitors of MRSA and surrogates of the causative agents of anthrax and tuberculosis” (2008).

What all share (type): functional
For test [1], the system named is Mycolicibacterium smegmatis. In words: Antimicrobial activity against Mycobacterium smegmatis by NCCLS M7-A6 method.
Test [2] relates to Staphylococcus aureus. In words: Antimicrobial activity against Staphylococcus aureus ATCC 29213 by NCCLS M7-A6 method.
In the next test the test system is Escherichia coli. In words: Antimicrobial activity against Escherichia coli by NCCLS M7-A6 method.
Test [3] relates to Staphylococcus aureus. In words: Antimicrobial activity against methicillin-resistant Staphylococcus aureus MC1 by NCCLS M7-A6 method.
In a further test the test system is Bacillus cereus. In words: Antimicrobial activity against Bacillus cereus by NCCLS M7-A6 method.
The next test deals with Streptococcus pneumoniae. The test can be described thus: Antimicrobial activity against Streptococcus pneumoniae ATCC 49619 by NCCLS M7-A6 method.
Another test deals with Streptococcus agalactiae. The test can be described thus: Antimicrobial activity against Streptococcus agalactiae by NCCLS M7-A6 method.
The subject of a further test is Listeria monocytogenes. The test can be described thus: Antimicrobial activity against Listeria monocytogenes by NCCLS M7-A6 method.
Another test has as its system Enterococcus faecalis. The test can be described thus: Antimicrobial activity against Enterococcus faecalis ATCC 29212 by NCCLS M7-A6 method.
Test [4] deals with Staphylococcus aureus. The test can be described thus: Antimicrobial activity against Staphylococcus aureus ATCC 25923 by NCCLS M7-A6 method.
In the next test the test system is Streptococcus mitis. The test can be described thus: Antimicrobial activity against Streptococcus mitis by NCCLS M7-A6 method.
The test system of another test is Priestia megaterium. In words: Antimicrobial activity against Bacillus megaterium by NCCLS M7-A6 method.
Test [5] concerns Corynebacterium diphtheriae. The test can be described thus: Antimicrobial activity against Corynebacterium diphtheriae Tox by NCCLS M7-A6 method.
Another test relates to Streptococcus pyogenes. The test can be described thus: Antimicrobial activity against Streptococcus pyogenes by NCCLS M7-A6 method.
Another test has as its system Bacillus anthracis. In words: Antimicrobial activity against Bacillus anthracis Sterne by NCCLS M7-A6 method.
Test [6] has as its system Staphylococcus aureus. In words: Antimicrobial activity against methicillin-resistant Staphylococcus aureus MC2 by NCCLS M7-A6 method.
A further test deals with Pseudomonas aeruginosa. In words: Antimicrobial activity against Pseudomonas aeruginosa by NCCLS M7-A6 method.
The subject of the next test is Corynebacterium xerosis. The test can be described thus: Antimicrobial activity against Corynebacterium xerosis by NCCLS M7-A6 method.
The subject of test [7] is Enterococcus faecium. The test can be described thus: Antimicrobial activity against vancomycin-resistant Enterococcus faecium 1 by NCCLS M7-A6 method.
Test [8] relates to Enterococcus faecium. In words: Antimicrobial activity against vancomycin-resistant Enterococcus faecium 14 by NCCLS M7-A6 method.
A further test has as its system Bacillus subtilis. In words: Antimicrobial activity against Bacillus subtilis by NCCLS M7-A6 method.
The test system of test [9] is Corynebacterium pseudodiphtheriticum. In words: Antimicrobial activity against Corynebacterium pseudodiphtheriticum by NCCLS M7-A6 method.

Converted amounts (≈) assume the structure as drawn.

Take `COc1cc(/C=C/c2cccs2)cc(OC)c1`: the MIC (in test [1]; in the test on Staphylococcus aureus [2]; in the test with Escherichia coli; with Staphylococcus aureus [3]; with Bacillus cereus) was over 512 µg/mL in each case.
Turning to `COc1cc(O)cc(/C=C/Oc2ccccc2C)c1`, the MIC in test [1] is over 128 µg/mL; in the test on Staphylococcus aureus [2] it was 16 µg/mL (≈ 62.4 µM); in the test with Escherichia coli it was over 512 µg/mL; with Staphylococcus aureus [3], 32 µg/mL (≈ 125 µM); against Bacillus cereus, 64 µg/mL (≈ 250 µM).
Regarding `COc1cc(O)cc(/C=C/c2ccsc2)c1`, the MIC in [1] is 64 µg/mL (≈ 276 µM); in the test with Staphylococcus aureus [2], 32 µg/mL (≈ 138 µM); in the test on Escherichia coli, over 512 µg/mL; in the test with Staphylococcus aureus [3], 32 µg/mL (≈ 138 µM); in the test on Bacillus cereus, 32 µg/mL (≈ 138 µM).
For `COc1cc(/C=C/Oc2ccccc2)cc(OC)c1`, the MIC (in [1]; with Staphylococcus aureus [2]; in the test with Escherichia coli; in the test on Staphylococcus aureus [3]; in the test with Bacillus cereus) was over 512 µg/mL throughout.
Take `COc1cc(/C=C/Oc2cccc(C)c2)cc(OC)c1`: the MIC (in test [1]; in the test with Staphylococcus aureus [2]; against Escherichia coli; in the test with Staphylococcus aureus [3]; with Bacillus cereus) was over 512 µg/mL in each case.
Consider `COc1cc(/C=C/Oc2ccc(C)cc2)cc(OC)c1`, for which the MIC (in test [1]; with Staphylococcus aureus [2]; in the test with Escherichia coli; against Staphylococcus aureus [3]; in the test with Bacillus cereus) was over 512 µg/mL throughout.
For `COc1cc(/C=C/Oc2cccc(OC)c2)cc(OC)c1`, the MIC (in test [1]; in the test on Staphylococcus aureus [2]; in the test with Escherichia coli; against Staphylococcus aureus [3]; against Bacillus cereus) was over 512 µg/mL throughout.
Consider `COc1cc(O)cc(O/C=C/c2ccccc2)c1`, for which the MIC in test [1] is 128 µg/mL (≈ 528 µM); against Staphylococcus aureus [2] it was 32 µg/mL (≈ 132 µM); against Escherichia coli it was over 512 µg/mL; against Staphylococcus aureus [3] it was 32 µg/mL (≈ 132 µM); with Bacillus cereus, 64 µg/mL (≈ 264 µM).
Turning to `COc1cc(OC)cc(O/C=C/c2ccccc2)c1`, the MIC (in [1]; in the test on Staphylococcus aureus [2]; against Escherichia coli; with Staphylococcus aureus [3]; in the test with Bacillus cereus) was over 512 µg/mL each time.
Consider `COc1cc(O)cc(/C=C/Oc2ccccc2)c1`, for which the MIC is 128 µg/mL (≈ 528 µM) in test [1]; 32 µg/mL (≈ 132 µM) in the test on Staphylococcus aureus [2]; over 512 µg/mL against Escherichia coli; 64 µg/mL (≈ 264 µM) in the test on Staphylococcus aureus [3]; 32 µg/mL (≈ 132 µM) in the test with Bacillus cereus.
On to `COc1cc(O)cc(/C=C/Oc2ccc(C)cc2)c1`, for which the minimum inhibitory concentration (MIC) in test [1] is over 128 µg/mL; in the test with Staphylococcus aureus [2], 16 µg/mL (≈ 62.4 µM); in the test on Escherichia coli it was over 512 µg/mL; in the test with Staphylococcus aureus [3] it was 32 µg/mL (≈ 125 µM); in the test on Bacillus cereus, 64 µg/mL (≈ 250 µM).
For `COc1ccc(O/C=C/c2cc(O)cc(OC)c2)cc1`, in that order: 128 µg/mL (≈ 470 µM), 16 µg/mL (≈ 58.8 µM), over 512 µg/mL, 64 µg/mL (≈ 235 µM) and 64 µg/mL (≈ 235 µM).
In the case of `COc1cc(/C=C/Oc2ccccc2C)cc(OC)c1`, the MIC (in test [1]; with Staphylococcus aureus [2]; in the test with Escherichia coli; in the test on Staphylococcus aureus [3]; in the test with Bacillus cereus) was over 512 µg/mL each time.
As for `COc1cc(O)cc(/C=C/Oc2cccc(C)c2)c1`, the MIC is 64 µg/mL (≈ 250 µM) in test [1]; 16 µg/mL (≈ 62.4 µM) with Staphylococcus aureus [2]; over 512 µg/mL with Escherichia coli; 32 µg/mL (≈ 125 µM) against Staphylococcus aureus [3]; 32 µg/mL (≈ 125 µM) against Bacillus cereus.
`COc1cc(O)cc(/C=C/Sc2ccccc2)c1`: the MIC in test [1] is 128 µg/mL (≈ 495 µM); in the test with Staphylococcus aureus [2], 16 µg/mL (≈ 61.9 µM); against Escherichia coli, over 512 µg/mL; against Staphylococcus aureus [3] it was 32 µg/mL (≈ 124 µM); against Bacillus cereus, 16 µg/mL (≈ 61.9 µM).
With `COc1cc(O)cc(/C=C/Oc2cccc(OC)c2)c1`, the MIC in test [1] was 128 µg/mL (≈ 470 µM); against Staphylococcus aureus [2], 16 µg/mL (≈ 58.8 µM); with Escherichia coli, over 512 µg/mL; in the test with Staphylococcus aureus [3], 64 µg/mL (≈ 235 µM); with Bacillus cereus, 64 µg/mL (≈ 235 µM).
`COc1cc(O)cc(/C=C/c2cccs2)c1`: the MIC in [1] was 128 µg/mL (≈ 551 µM); in the test with Staphylococcus aureus [2] it was 16 µg/mL (≈ 68.9 µM); with Escherichia coli, over 512 µg/mL; in the test on Staphylococcus aureus [3], 32 µg/mL (≈ 138 µM); in the test with Bacillus cereus, 32 µg/mL (≈ 138 µM).
Take `COc1cc(/C=C/Sc2ccccc2)cc(OC)c1`: the minimal inhibitory concentration (MIC) (in test [1]; in the test on Staphylococcus aureus [2]; in the test on Escherichia coli; against Staphylococcus aureus [3]; against Bacillus cereus) was over 512 µg/mL throughout.
With `COc1ccc(O/C=C/c2cc(OC)cc(OC)c2)cc1`, the MIC (in [1]; against Staphylococcus aureus [2]; in the test on Escherichia coli; against Staphylococcus aureus [3]; against Bacillus cereus) was over 512 µg/mL in each case.
`COc1cc(/C=C/c2ccccc2)cc(OC)c1` [3,5-O-DIMETHYLPINOSYLVIN]: the MIC (in test [1]; in the test with Staphylococcus aureus [2]; in the test with Escherichia coli; in the test with Staphylococcus aureus [3]; against Bacillus cereus) was over 512 µg/mL throughout.
As to `COc1cc(O)cc(/C=C/c2ccccc2)c1` [PINOSYLVIN METHYL ETHER], the MIC against Streptococcus pneumoniae is 8 µg/mL (≈ 35.4 µM); in the test with Streptococcus agalactiae, 32 µg/mL (≈ 141 µM); against Listeria monocytogenes, 32 µg/mL (≈ 141 µM); in test [1], 64 µg/mL (≈ 283 µM); in the test with Enterococcus faecalis, 16 µg/mL (≈ 70.7 µM); against Staphylococcus aureus [4] it was 32 µg/mL (≈ 141 µM). Further, the MIC with Streptococcus mitis was 64 µg/mL (≈ 283 µM); in the test on Priestia megaterium it was 64 µg/mL (≈ 283 µM); in test [5], 32 µg/mL (≈ 141 µM); with Streptococcus pyogenes it was 16 µg/mL (≈ 70.7 µM); against Staphylococcus aureus [2] it was 32 µg/mL (≈ 141 µM); against Bacillus anthracis, 8 µg/mL (≈ 35.4 µM). The MIC with Staphylococcus aureus [6] is 32 µg/mL (≈ 141 µM); against Pseudomonas aeruginosa, over 128 µg/mL; against Corynebacterium xerosis, 16 µg/mL (≈ 70.7 µM); with Enterococcus faecium [7], 16 µg/mL (≈ 70.7 µM); in the test with Escherichia coli, over 512 µg/mL; with Staphylococcus aureus [3], 32 µg/mL (≈ 141 µM). For the same molecule, the MIC (in the test on Enterococcus faecium [8]; with Bacillus subtilis; against Bacillus cereus; in test [9]) was 16 µg/mL (≈ 70.7 µM) each time.

As usually defined, the MIC is the smallest concentration in the dilution series that meets the test's criterion for growth inhibition. Read a low MIC as a more susceptible organism.
